Laboratory results taken from ChEMBL document CHEMBL4433228, “Identification and immunological evaluation of novel TLR2 agonists through structure optimization of Pam3CSK4” (Bioorg Med Chem, 2019).
Calls of active or inactive are those of the source. No cut-off for these calls is given here. Residues, ends and D or L forms follow the SMILES beside them. *: point of attachment. Propyl(2R-PamO,3-PamO) = CCCCCCCCCCCCCCCC(=O)OC[C@H](C*)OC(=O)CCCCCCCCCCCCCCC; Palmitoyl = CCCCCCCCCCCCCCCC(=O)*

Experiments:
BMDM [1] = assay: Effect on IL-6 production in TLR2-/- mouse BMDM cells at 0.1 to 1 uM incubated for 24 hrs by ELISA; assay type: functional, cell-based
BMDM [2] = assay: Effect on TNFalpha production in TLR2-/- mouse BMDM cells at 0.1 to 1 uM incubated for 24 hrs by ELISA; assay type: functional, cell-based
[3] = molecular target: Toll-like receptor 2 (Mus musculus) (UniProt Q9QUN7); assay: Agonist activity at TLR2 in mouse BV2 cells assessed as increase in IL-6 secretion at 1 uM incubated for 24 hrs in presence of NF-kappaB inhibitor triptolide by ELISA; assay type: cell-based
[4] = molecular target: Toll-like receptor 2 (Mus musculus) (UniProt Q9QUN7); assay: Activation of TLR2 in wild type mouse BMDM cells assessed as stimulation of IL-6 production at 0.1 to 1 uM incubated for 24 hrs by ELISA; assay type: cell-based
[5] = molecular target: Toll-like receptor 2 (Mus musculus) (UniProt Q9QUN7); assay: Agonist activity at TLR2 in wild type mouse BMDM cells assessed as induction of NFkappaB pathway activation by measuring increase in IL-6 mRNA expression by qRT-PCR analysis; assay type: cell-based
[6] = molecular target: Toll-like receptor 2 (Mus musculus) (UniProt Q9QUN7); assay: Agonist activity at TLR2 in mouse dendritic cells assessed as upregulation CD80 expression at 100 ng/ml by flow cytometry; assay type: cell-based
[7] = molecular target: Toll-like receptor 1/2 (Homo sapiens) (UniProt O60603+Q15399); assay: Agonist activity at TLR2/1 in PMA-differentiated human THP-1 cells assessed as induction of IL-6 production at 2.5 uM incubated for 24 hrs after preincubation with anti-hTLR2-IGA for 2 hrs by ELISA; assay type: cell-based
[8] = molecular target: Toll-like receptor 2 (Mus musculus) (UniProt Q9QUN7); assay: Activation of TLR2 in wild type mouse BMDM cells assessed as stimulation of IL-12 production at 0.1 to 1 uM incubated for 24 hrs by ELISA; assay type: cell-based
[9] = molecular target: Toll-like receptor 2 (Mus musculus) (UniProt Q9QUN7); assay: Activation of TLR2 in wild type mouse BMDM cells assessed as stimulation of TNFalpha production at 0.1 to 1 uM incubated for 24 hrs by ELISA; assay type: cell-based
[10] = molecular target: Toll-like receptor 2 (Mus musculus) (UniProt Q9QUN7); assay: Agonist activity at TLR2 in mouse BV2 cells assessed as increase in IL-6 secretion at 2 uM incubated for 24 hrs by ELISA; assay type: cell-based
[11] = (§1) Effect on IL-6 mRNA expression in TLR2-/- mouse BMDM cells at 0.1 to 1 uM by qRT-PCR analysis; assay type: ADME, cell-based
[12] = as §1; assay type: ADME, cell-based; remark: listed apart in the source
BV-2 [13] = assay: Effect on IkappaBalpha protein expression in mouse BV2 cells at 0.2 to 2 uM incubated for 12 hrs by Western blot analysis; assay type: ADME, cell-based; details: bv-2, 12 h
[14] = molecular target: Toll-like receptor 2 (Mus musculus) (UniProt Q9QUN7); assay: Agonist activity at TLR2 in mouse BV2 cells assessed as stimulation of NFkappaB pathway by measuring increase in IkappaBalpha phosphorylation incubated for 12 hrs by Western blot analysis; assay type: cell-based
[15] = molecular target: Toll-like receptor 2 (Mus musculus) (UniProt Q9QUN7); assay: Agonist activity at TLR2 in mouse RAW264.7 cells assessed as induction of IL-6 production incubated for 24 hrs by ELISA; assay type: cell-based
[16] = molecular target: Toll-like receptor 2 (Mus musculus) (UniProt Q9QUN7); assay: Agonist activity at TLR2 in mouse dendritic cells assessed as upregulation CD86 expression at 100 ng/ml by flow cytometry; assay type: cell-based
[17] = molecular target: Toll-like receptor 2 (Mus musculus) (UniProt Q9QUN7); assay: Agonist activity at TLR2 in mouse dendritic cells assessed as upregulation MHC class 2 expression at 100 ng/ml by flow cytometry; assay type: cell-based
[18] = molecular target: Toll-like receptor 2 (Homo sapiens) (UniProt O60603); assay: Agonist activity at human TLR2 in PMA-differentiated THP-1 cells assessed as induction of IL-6 production at 0.5 to 2.5 uM incubated for 24 hrs by ELISA; assay type: cell-based
THP-1 [19] = assay: Agonist activity at TLR2/1 in PMA-differentiated human THP-1 cells assessed as induction of IL-6 production at 2.5 uM incubated for 24 hrs after preincubation with anti-hTLR1-IGG for 2 hrs by ELISA; assay type: cell-based
TLR2/TLR6 (Homo sapiens) [20] = molecular target: T1, TLR2/TLR6 (Homo sapiens) (UniProt O60603+Q9Y2C9); assay: Agonist activity at TLR2/6 in PMA-differentiated human THP-1 cells assessed as induction of IL-6 production at 2.5 uM incubated for 24 hrs after preincubation with anti-hTLR6-IGG for 2 hrs by ELISA; assay type: cell-based
BMDM [21] = assay: Effect on IL-12 production in TLR2-/- mouse BMDM cells at 0.1 to 1 uM incubated for 24 hrs by ELISA; assay type: functional, cell-based
BV-2 [22] = assay: Cytotoxicity against mouse BV2 cells assessed as cell viability up to 5 uM incubated for 24 hrs by CCK-8 assay; assay type: cell-based; details: bv-2, 24 h
Toll-like receptor 2 = Toll-like receptor 2 (Mus musculus, UniProt Q9QUN7); assay: Agonist activity at TLR2 in wild type mouse BMDM cells assessed as induction of NFkappaB pathway activation by measuring increase in TNF-alpha mRNA expression by qRT-PCR analysis; assay type: cell-based
Dendritic cell [23] = assay: Effect on CD80 expression in TLR2-/- mouse dendritic cells at 100 ng/ml by flow cytometry; assay type: ADME, cell-based
Dendritic cell [24] = assay: Effect on CD86 expression in TLR2-/- mouse dendritic cells at 100 ng/ml by flow cytometry; assay type: ADME, cell-based
Dendritic cell [25] = assay: Effect on MHC class 2 expression in TLR2-/- mouse dendritic cells at 100 ng/ml by flow cytometry; assay type: ADME, cell-based
THP-1 [26] = assay: Cytotoxicity against human THP1 cells assessed as cell viability up to 5 uM incubated for 24 hrs by CCK-8 assay; assay type: cell-based; details: thp-1, 24 h
[27] = Effect on TNFalpha mRNA expression in TLR2-/- mouse BMDM cells at 0.1 to 1 uM by qRT-PCR analysis; assay type: ADME, cell-based
TLR2/TLR6 (Homo sapiens) [28] = molecular target: T1, TLR2/TLR6 (Homo sapiens); assay: Agonist activity at TLR2/6 in PMA-differentiated human THP-1 cells assessed as induction of IL-6 production at 2.5 uM incubated for 24 hrs after preincubation with […] for 2 hrs by ELISA; assay type: cell-based
[29] = molecular target: Toll-like receptor 1/2 (Mus musculus) (UniProt Q9QUN7+Q9EPQ1); assay: Agonist activity at TLR2/1 in mouse BV2 cells assessed as induction of IL-6 production at 2 uM incubated for 24 hrs in presence of TLR2/1 inhibitor CU-CPT22 by ELISA; assay type: cell-based

Sequence of Toll-like receptor 2 (Mus musculus) (Q9QUN7 whole entry): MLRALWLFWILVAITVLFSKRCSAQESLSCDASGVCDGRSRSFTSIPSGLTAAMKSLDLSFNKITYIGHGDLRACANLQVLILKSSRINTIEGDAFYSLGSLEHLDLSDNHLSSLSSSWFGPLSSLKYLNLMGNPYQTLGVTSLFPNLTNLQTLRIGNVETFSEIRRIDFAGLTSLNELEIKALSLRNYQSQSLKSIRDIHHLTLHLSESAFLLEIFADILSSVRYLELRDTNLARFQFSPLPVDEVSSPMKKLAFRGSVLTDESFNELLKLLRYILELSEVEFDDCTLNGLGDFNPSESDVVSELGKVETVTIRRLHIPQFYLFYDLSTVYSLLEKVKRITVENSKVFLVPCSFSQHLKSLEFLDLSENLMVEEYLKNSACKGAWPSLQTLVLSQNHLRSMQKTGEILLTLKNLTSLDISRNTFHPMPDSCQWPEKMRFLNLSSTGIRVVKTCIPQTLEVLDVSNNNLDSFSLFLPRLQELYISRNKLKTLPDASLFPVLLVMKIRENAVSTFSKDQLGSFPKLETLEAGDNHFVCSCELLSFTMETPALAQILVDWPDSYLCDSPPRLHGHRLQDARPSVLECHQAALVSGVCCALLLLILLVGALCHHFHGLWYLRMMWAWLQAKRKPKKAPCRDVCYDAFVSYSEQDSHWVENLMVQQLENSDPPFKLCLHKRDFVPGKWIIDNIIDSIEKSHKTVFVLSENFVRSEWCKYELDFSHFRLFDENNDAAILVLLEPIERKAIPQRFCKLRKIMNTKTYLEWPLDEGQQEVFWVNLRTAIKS
Sequence of Toll-like receptor 2 (Q9QUN7 whole entry): as above
Sequence of Toll-like receptor 2 (Homo sapiens) (O60603 whole entry): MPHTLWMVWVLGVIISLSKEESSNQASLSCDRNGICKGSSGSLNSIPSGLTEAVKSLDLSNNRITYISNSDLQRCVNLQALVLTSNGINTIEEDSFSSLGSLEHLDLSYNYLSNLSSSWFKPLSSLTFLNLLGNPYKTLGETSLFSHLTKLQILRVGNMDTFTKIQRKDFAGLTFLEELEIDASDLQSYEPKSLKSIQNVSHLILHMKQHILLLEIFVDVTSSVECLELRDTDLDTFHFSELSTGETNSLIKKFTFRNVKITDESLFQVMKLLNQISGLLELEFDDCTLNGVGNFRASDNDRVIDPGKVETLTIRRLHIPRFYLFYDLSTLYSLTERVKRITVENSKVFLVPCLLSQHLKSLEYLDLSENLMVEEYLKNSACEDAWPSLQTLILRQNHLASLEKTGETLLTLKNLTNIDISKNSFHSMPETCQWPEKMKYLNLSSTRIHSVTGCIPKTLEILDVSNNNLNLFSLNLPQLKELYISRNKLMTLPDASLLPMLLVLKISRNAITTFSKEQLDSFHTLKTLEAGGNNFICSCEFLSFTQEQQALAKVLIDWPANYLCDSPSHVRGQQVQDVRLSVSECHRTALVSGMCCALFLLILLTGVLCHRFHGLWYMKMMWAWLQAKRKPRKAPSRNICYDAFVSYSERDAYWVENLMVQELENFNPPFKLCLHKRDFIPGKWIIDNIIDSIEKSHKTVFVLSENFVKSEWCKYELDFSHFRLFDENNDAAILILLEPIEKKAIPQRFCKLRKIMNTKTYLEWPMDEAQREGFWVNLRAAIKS

## CCCCCCCCCCCCCCCC(=O)N[C@@H](CSCCNC(=O)OCCCCCCCCCCCCCC)C(=O)N[C@H](CO)C(=O)N[C@@H](CCCCN)C(=O)N[C@@H](CCCCN)C(=O)N[C@@H](CCCCN)C(=O)N[C@@H](CCCCN)C(=O)O
BMDM [1]
  Activity: Active
BMDM [2]
  Activity: inactive
[3]
  Activity: inactive
[4]
  Activity: inactive
[5]
  Activity: Dose-dependent effect
[6]
  Activity: Dose-dependent effect
[7]
  Activity: inactive
[8]
  Activity: Active
[9]
  Activity: Active

## CCCCCCCCCCCCCCCCOC(=O)NCCSC[C@H](NC(=O)CCCCCCCCCCCCCCC)C(=O)N[C@H](CO)C(=O)N[C@@H](CCCCN)C(=O)N[C@@H](CCCCN)C(=O)N[C@@H](CCCCN)C(=O)O
BMDM [1]
  Activity: Active
[7]
  Activity: Active
[10]
  Activity: Active

## CCCCCCCCCCCCCCCC(=O)N[C@@H](CSCCNC(=O)OCCCCCCCCCCCCCC)C(=O)N[C@@H](CO)C(=O)N[C@@H](CCCCN)C(=O)N[C@@H](CCCCN)C(=O)N[C@@H](CCCCN)C(=O)N[C@@H](CCCCN)C(=O)O
[11]
  Activity: Non-Toxic
[12]
  Activity: Non-Toxic
BV-2 [13]
  Activity: Active

## CCCCCCCCCCCCCCCCNC(=O)NCCSC[C@H](NC(=O)CCCCCCCCCCCCCCC)C(=O)N[C@H](CO)C(=O)N[C@@H](CCCCN)C(=O)N[C@@H](CCCCN)C(=O)N[C@@H](CCCCN)C(=O)N[C@@H](CCCCN)C(=O)O
BMDM [1]
  Activity: inactive
[7]
  Activity: inactive

## CCCCCCCCCCCCCCCCOC(=O)NCCSC[C@H](NC(=O)CCCCCCCCCCCCCCC)C(=O)N[C@H](CO)C(=O)N[C@@H](CCCCN)C(=O)N[C@@H](CCCCN)C(=O)N[C@@H](CCCCN)C(=O)N[C@@H](CCCCN)C(=O)O
[14]
  Activity: inactive
[15]
  Activity: Dose-dependent effect
BMDM [1]
  Activity: Active
BMDM [2]
  Activity: inactive
[3]
  Activity: inactive
[4]
  Activity: inactive
[5]
  Activity: Dose-dependent effect
[6]
  Activity: Dose-dependent effect
[16]
  Activity: Active
[17]
  Activity: Active
[18]
  Activity: Active
[7]
  Activity: Active
THP-1 [19]
  Activity: inactive
TLR2/TLR6 (Homo sapiens) [20]
  Activity: inactive
[10]
  Activity: Active
[8]
  Activity: Active
[9]
  Activity: Active

## CCCCCCCCCCCCCCCC(=O)N[C@@H](CSC[C@@H](COC(=O)CCCCCCCCCCCCCCC)OC(=O)CCCCCCCCCCCCCCC)C(=O)N[C@@H](CO)C(=O)N[C@@H](CCCCN)C(=O)N[C@@H](CCCCN)C(=O)N[C@@H](CCCCN)C(=O)N[C@@H](CCCCN)C(=O)O (Palmitoyl-C(Propyl(2R-PamO,3-PamO))SKKKK-OH)
[11]
  Activity: Non-Toxic
[12]
  Activity: Non-Toxic
[5]
  Activity: Dose-dependent effect
[6]
  Activity: Dose-dependent effect
THP-1 [19]
  Activity: inactive
TLR2/TLR6 (Homo sapiens) [20]
  Activity: inactive
BMDM [21]
  Activity: Active

## CCCCCCCCCCCCCCCCOC(=O)NCCSC[C@H](NC(=O)NCCCCCCCCCCCCCC)C(=O)N[C@@H](CO)C(=O)N[C@@H](CCCCN)C(=O)N[C@@H](CCCCN)C(=O)N[C@@H](CCCCN)C(=O)N[C@@H](CCCCN)C(=O)O
BV-2 [22]
  Activity: Non-Toxic

## CCCCCCCCCCCCCCCCOC(=O)NCCSC[C@H](NC(=O)CCCCCCCCCCCCCCC)C(=O)N[C@@H](CO)C(=O)N[C@@H](CCCCN)C(=O)N[C@@H](CCCCN)C(=O)N[C@@H](CCCCN)C(=O)O
BV-2 [22]
  Activity: Non-Toxic

## CCCCCCCCCCCCCCCC(=O)N[C@@H](CSCCOC(=O)CCCCCCCCCCCCCCC)C(=O)N[C@H](CO)C(=O)N[C@@H](CCCCN)C(=O)N[C@@H](CCCCN)C(=O)N[C@@H](CCCCN)C(=O)N[C@@H](CCCCN)C(=O)O
BMDM [1]
  Activity: Dose-dependent effect
BMDM [2]
  Activity: inactive
[3]
  Activity: inactive
[4]
  Activity: inactive
[5]
  Activity: Dose-dependent effect
[6]
  Activity: Dose-dependent effect
[7]
  Activity: Active
THP-1 [19]
  Activity: inactive
TLR2/TLR6 (Homo sapiens) [20]
  Activity: inactive
[10]
  Activity: Active
[8]
  Activity: Active
[9]
  Activity: Active

## CCCCCCCCCCCCCCCC(=O)NCCSC[C@H](NC(=O)CCCCCCCCCCCCCCC)C(=O)N[C@H](CO)C(=O)N[C@@H](CCCCN)C(=O)N[C@@H](CCCCN)C(=O)N[C@@H](CCCCN)C(=O)N[C@@H](CCCCN)C(=O)O
BMDM [1]
  Activity: inactive
[7]
  Activity: inactive

## CCCCCCCCCCCCCCCCOC(=O)NCCSC[C@H](NC(=O)CCCCCCCCCCCCCCC)C(=O)N[C@@H](CO)C(=O)N[C@@H](CCCCN)C(=O)N[C@@H](CCCCN)C(=O)N[C@@H](CCCCN)C(=O)N[C@@H](CCCCN)C(=O)O
Toll-like receptor 2
  EC50: 83.1 nM
[11]
  Activity: Non-Toxic
[12]
  Activity: Non-Toxic
Dendritic cell [23]
  Activity: Active
Dendritic cell [24]
  Activity: Non-Toxic
Dendritic cell [25]
  Activity: Non-Toxic
THP-1 [26]
  Activity: Non-Toxic
BV-2 [22]
  Activity: Non-Toxic
BV-2 [13]
  Activity: Active
[27]
  Activity: Non-Toxic

## CCCCCCCCCCCCCCCCOC(=O)NCCSC[C@H](NC(=O)NCCCCCCCCCCCCCC)C(=O)N[C@H](CO)C(=O)N[C@@H](CCCCN)C(=O)N[C@@H](CCCCN)C(=O)N[C@@H](CCCCN)C(=O)N[C@@H](CCCCN)C(=O)O
BMDM [1]
  Activity: inactive
TLR2/TLR6 (Homo sapiens) [28]
  Activity: inactive
[29]
  Activity: inactive
[10]
  Activity: Active

## CCCCCCCCCCCCCCCC(=O)N[C@@H](CSCCOC(=O)CCCCCCCCCCCCCCC)C(=O)N[C@@H](CO)C(=O)N[C@@H](CCCCN)C(=O)N[C@@H](CCCCN)C(=O)N[C@@H](CCCCN)C(=O)N[C@@H](CCCCN)C(=O)O
[11]
  Activity: Non-Toxic
[12]
  Activity: Non-Toxic
BV-2 [22]
  Activity: Non-Toxic
BV-2 [13]
  Activity: Active
